# Source: patent US20060088545A1, “Use of inhibitors of the protease of the human immunodeficiency virus (hiv) to block cell migration and/or invasion, tissue infiltration and oedema for the therary of diseases associated therewith” (priority 2001, published 2006)
# Tested on: angiogenesis induced by bFGF or VEGF in the chorioallantoic membrane
# Description: CAM assays were performed with 1 mm^3 sterilized gelatin sponges (Gelfoam; Upjohn Co, Kalamazoo, Mich.) adsorbed with bFGF or VEGF (1 μg or 100 ng, respectively) in 5 μl of PBS, and with buffer, HIV-PI (10 μM) or taxol (250 nM) (Bristol-Myers Squibb Co., Princeton, N.J.) as described (Ribatti et al, Int. J. Dev. Biol., 1996). CAM were examined daily until day 12 under an Olympus SZX9 stereomicroscope. Images (1024×1024 pixels) were captured at a distance of 2 mm from the edge of the sponge using a cooled digital CCD Hamamatsu ORCA camera (Hamamatsu Photonics Italia, Arese, Italy). Vessel number was quantified with the ImageProPlus 4.0 imaging software (Media Cybernetics, Silver Spring, Md.) in 3 randomly selected areas per egg ([…]).
# Results are expressed as the average number of vessels/mm^2±SD from the indicated number of CAM per experimental condition.
compound,measurement,setting,value
"CC(=O)O[C@H]1C(=O)[C@@]2(C)[C@H]([C@H](OC(=O)c3ccccc3)[C@]3(O)C[C@H](OC(=O)[C@H](O)[C@@H](NC(=O)c4ccccc4)c4ccccc4)C(C)=C1C3(C)C)[C@]1(OC(C)=O)CO[C@@H]1C[C@@H]2O [Taxol, taxol]",Average vessel (number/mm^2 ± SD),"bFGF 1 μg, HIV-PI 10 μM, taxol 250 nM",7.71 ± 1.63 number/mm^2
same,basal CAM vascularization,drug administered alone,did not affect
same,toxicity in CAM,in vivo,not associated with toxicity
